Test results taken from US20130131075A1, “NEW COMPOUNDS” (Boehringer Ingelheim International GmbH, priority 2009, published 2013).

Molecular target: T1, cynomolgus BK1-receptor (Macaca fascicularis, UniProt Q3BCU0)
T1 construct: expressed in transfected cells; host or cells: CHO cells (homogenate)
T1 sequence (Q3BCU0 1-352): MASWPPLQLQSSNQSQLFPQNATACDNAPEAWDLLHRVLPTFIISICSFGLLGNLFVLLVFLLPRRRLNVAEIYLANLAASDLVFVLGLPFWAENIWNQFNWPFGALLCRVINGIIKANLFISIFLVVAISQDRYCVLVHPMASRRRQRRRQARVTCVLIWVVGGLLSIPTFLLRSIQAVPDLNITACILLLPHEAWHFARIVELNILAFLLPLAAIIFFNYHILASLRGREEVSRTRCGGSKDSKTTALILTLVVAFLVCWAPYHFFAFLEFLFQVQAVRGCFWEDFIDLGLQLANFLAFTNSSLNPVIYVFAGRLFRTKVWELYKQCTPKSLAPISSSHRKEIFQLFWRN
Assay: cynoBK1-receptor binding assay
Conditions: CHO cells expressing cynomolgus BK1-receptor, radioligand kallidine (DesArg10,Leu9); for inhibition at 10 µM: at 10 μgmol/L
Procedure: Description of the Method of Binding the cynoBK1-Receptor
CHO cells that express the cynomolgus BK1-receptor are cultivated in “HAM'S F-12 Medium”. The medium is removed from confluent cultures, the cells are washed with PBS buffer, scraped off or detached using Versene and isolated by centrifuging. Then the cells are homogenised in suspension, the homogenate is centrifuged and resuspended. After the protein content has been determined 200 μl of the homogenate (50 to 250 μg protein/assay) are incubated for 60-180 minutes at ambient temperature with 0.5 to 5.0 nM kallidine (DesArg10,Leu9), [3,4-Prolyl-3,43H(N)] and increasing concentrations of the test substance in a total volume of 250 μl. The incubation is stopped by rapid filtration through GF/B glass fibre filters that have been pre-treated with polyethyleneimine (0.3%). The radioactivity bound to the protein is measured with a TopCount NXT. The radioactivity bound in the presence of 1.0 μM kallidine (DesArg10) is defined as non-specific binding. The concentration binding curve may be analysed using computer-aided non-linear curve fitting to determine the corresponding Ki value for the test substance.
Test results of the cynoBK1-receptor binding assay: […]

Compound | inhibition at 10 µM [%] | Ki [nM]
O=C(NC1(C(=O)NCc2ccc(Nc3cccc(Cl)c3Cl)cc2)CC1)c1cncnc1 [(1)] | 54 | –
O=C(NC1(C(=O)NCc2ccc(Nc3ccccc3Cl)cc2)CC1)c1cncnc1 [(2)] | 100 | 25
O=C(NC1(C(=O)NCc2ccc(Nc3ccccc3)cc2)CC1)c1cncnc1 [(3)] | 65 | –
CN1CCC(C(=O)NC2(C(=O)NCc3ccc(Nc4ccccc4C(F)(F)F)cc3)CC2)CC1 [(22)] | 60 | –
CC(NC(=O)C1(NC(=O)c2cncnc2)CC1)c1ccc(Nc2ccc(OC(F)F)cc2)cc1 (centres unmarked) [(25)] | 86 | –
O=C(CC(F)(F)F)NC1(C(=O)NCc2ccc(Nc3ccc(F)cc3C(F)(F)F)cc2)CC1 [(30)] | 111 | 13
CS(=O)(=O)c1ccc(Nc2ccc(CNC(=O)C3(NC(=O)c4cncnc4)CC3)cc2)c(C(F)(F)F)c1 [(32)] | 93 | 200
O=C(NC1(C(=O)NCc2ccc(Nc3ccc(F)cc3C(F)(F)F)cc2)CC1)c1cncnc1 [(33)] | 110 | 1.9
N#Cc1ccccc1Nc1ccc(CNC(=O)C2(NC(=O)c3cncnc3)CC2)cc1 [(35)] | 111 | 70
N#Cc1cc(F)ccc1Nc1ccc(CNC(=O)C2(NC(=O)c3cncnc3)CC2)cc1 [(36)] | 113 | 21
O=C(NC1(C(=O)NCc2ccc(Nc3ccc(F)cc3)cc2)CC1)c1cncnc1 [(37)] | 77 | > 500
O=C(NC1(C(=O)NCc2ccc(Nc3ccccc3C(F)(F)F)cn2)CC1)c1cncnc1 [(39)] | 110 | 5.5
CC(NC(=O)C1(NC(=O)c2cncnc2)CC1)c1ccc(Nc2ccccc2C(F)(F)F)cn1 (centres unmarked) [(40)] | 110 | 2.9
O=C(NC1(C(=O)NCc2ccc(Nc3ccc(F)cc3C(F)(F)F)cn2)CC1)c1cncnc1 [(41)] | 108 | 2.6
O=C(NC1(C(=O)NCc2ccc(Nc3cc(F)ccc3C(F)(F)F)cn2)CC1)c1cncnc1 [(42)] | 89 | –
O=C(N[C@@]1(C(=O)NCc2ccc(Nc3ccc(F)cc3C(F)(F)F)cn2)CCOC1)c1cncnc1 [(43)] | 94 | 36

Compound | inhibition at 10 µM [%] | Ki [nM]
O=C(NC1(C(=O)NCc2ccc(Nc3c(F)cccc3C(F)(F)F)cn2)CC1)c1cncnc1 [(44)] | 109 | 7
CC(NC(=O)C1(NC(=O)c2cncnc2)CC1)c1ccc(Nc2ccc(F)cc2C(F)(F)F)cn1 (centres unmarked) [(45)] | 104 | 2
O=C(N[C@@]1(C(=O)NCc2ccc(Nc3c(F)cccc3C(F)(F)F)cn2)CCOC1)c1cncnc1 [(46)] | 88 | 290
CC(NC(=O)[C@]1(NC(=O)c2cncnc2)CCOC1)c1ccc(Nc2ccc(F)cc2C(F)(F)F)cn1 (some centres unmarked) [(47)] | 94 | 39
O=C(N[C@@]1(C(=O)NCc2ccc(Nc3cc(F)ccc3C(F)(F)F)cn2)CCOC1)c1cncnc1 [(48)] | 71 | –
Cc1cccc(C(F)(F)F)c1Nc1ccc(CNC(=O)C2(NC(=O)c3cncnc3)CC2)nc1 [(49)] | 103 | 365
COc1ccc(Nc2ccc(CNC(=O)C3(NC(=O)c4cncnc4)CC3)nc2)c(C(F)(F)F)c1 [(50)] | 115 | 0.7
Cc1ccc(Nc2ccc(CNC(=O)C3(NC(=O)c4cncnc4)CC3)nc2)c(C(F)(F)F)c1 [(51)] | 112 | 38
O=C(NC1(C(=O)NCc2ccc(Nc3ccc(C(F)(F)F)cc3C(F)(F)F)cn2)CC1)c1cncnc1 [(52)] | 63 | 312
Cc1cc(Br)ccc1Nc1ccc(CNC(=O)C2(NC(=O)c3cncnc3)CC2)nc1 [(53)] | 101 | 197
O=C(NC1(C(=O)NCc2ccc(Nc3ccc(Br)cc3C(F)(F)F)cn2)CC1)c1cncnc1 [(54)] | 112 | 3.8
O=C(NC1(C(=O)NCc2ccc(Nc3ccc(Cl)cc3C(F)(F)F)cn2)CC1)c1cncnc1 [(55)] | 108 | 3.3
O=C1CCC(C(=O)N[C@@]2(C(=O)NCc3ccc(Nc4ccccc4C(F)(F)F)cc3)CCOC2)N1 (some centres unmarked) [(56)] | 99 | –
O=C(N[C@@]1(C(=O)NCc2ccc(Nc3ccccc3C(F)(F)F)cc2)CCOC1)C1CCOC1 (some centres unmarked) [(60)] | 84 | –
O=C(N[C@@]1(C(=O)NCc2ccc(Nc3ccccc3C(F)(F)F)cc2)CCOC1)C1CCOCC1 [(65)] | 76 | –

Next, values leading:

inhibition at 10 µM [%] | Ki [nM] | Compound
109 | – | O=C(NC1(C(=O)NCc2ccc(Nc3ccccc3C(F)(F)F)cc2)CC1)c1cncnc1 [(4)]
88 | – | O=C1CCC(C(=O)NC2(C(=O)NCc3ccc(Nc4ccccc4C(F)(F)F)cc3)CC2)N1 (centres unmarked) [(5)]
59 | – | CN(C)CCCC(=O)NC1(C(=O)NCc2ccc(Nc3ccccc3C(F)(F)F)cc2)CC1 [(6)]
100 | – | O=C(CC(F)(F)F)NC1(C(=O)NCc2ccc(Nc3ccccc3C(F)(F)F)cc2)CC1 [(7)]
75 | – | CN(C)CCC(=O)NC1(C(=O)NCc2ccc(Nc3ccccc3C(F)(F)F)cc2)CC1 [(8)]
78 | – | O=C(NC1(C(=O)NCc2ccc(Nc3ccccc3C(F)(F)F)cc2)CC1)c1cnc(O)nc1O [(9)]
58 | – | CN(C)CCCCC(=O)NC1(C(=O)NCc2ccc(Nc3ccccc3C(F)(F)F)cc2)CC1 [(10)]
99 | – | O=C(NC1(C(=O)NCc2ccc(Nc3ccccc3C(F)(F)F)cc2)CC1)c1cccnc1 [(11)]
78 | – | CN(C)CC(=O)NC1(C(=O)NCc2ccc(Nc3ccccc3C(F)(F)F)cc2)CC1 [(12)]
101 | – | CCC(=O)NC1(C(=O)NCc2ccc(Nc3ccccc3C(F)(F)F)cc2)CC1 [(13)]
84 | – | COCC(=O)NC1(C(=O)NCc2ccc(Nc3ccccc3C(F)(F)F)cc2)CC1 [(14)]
99 | – | O=C(NC1(C(=O)NCc2ccc(Nc3ccccc3C(F)(F)F)cc2)CC1)C1CC1 [(15)]
91 | – | CCCCC(=O)NC1(C(=O)NCc2ccc(Nc3ccccc3C(F)(F)F)cc2)CC1 [(16)]
75 | – | Cn1cnc(C(=O)NC2(C(=O)NCc3ccc(Nc4ccccc4C(F)(F)F)cc3)CC2)c1 [(17)]
67 | – | Cn1ccnc1C(=O)NC1(C(=O)NCc2ccc(Nc3ccccc3C(F)(F)F)cc2)CC1 [(18)]
96 | – | O=C(CC1CC1)NC1(C(=O)NCc2ccc(Nc3ccccc3C(F)(F)F)cc2)CC1 [(19)]

inhibition at 10 µM [%] | Ki [nM] | Compound
81 | – | O=C(NC1(C(=O)NCc2ccc(Nc3ccccc3C(F)(F)F)cc2)CC1)c1ccccc1 [(20)]
68 | – | O=C(NC1(C(=O)NCc2ccc(Nc3ccccc3C(F)(F)F)cc2)CC1)c1ccccn1 [(21)]
110 | – | O=C(NC1(C(=O)NCc2ccc(Nc3ccccc3C(F)(F)F)cc2)CC1)C(F)(F)F [(23)]
107 | – | O=C(NC1(C(=O)NCc2ccc(Nc3ccccc3C(F)(F)F)cc2)CC1)c1ccno1 [(24)]
109 | – | O=C(NC1(C(=O)NCc2ccc(Nc3ccccc3C(F)(F)F)cc2)CC1)c1cncc(C(F)(F)F)c1 [(26)]
104 | – | Cc1nnc(C(=O)NC2(C(=O)NCc3ccc(Nc4ccccc4C(F)(F)F)cc3)CC2)o1 [(27)]
113 | 6.2 | O=C(NC1(C(=O)NCc2ccc(Nc3ccc(F)cc3C(F)(F)F)cc2)CC1)c1cncs1 [(29)]
112 | 13 | O=C(NC1(C(=O)NCc2ccc(Nc3ccc(F)cc3C(F)(F)F)cc2)CC1)c1ccno1 [(31)]
94 | > 500 | O=C(Cc1cncnc1)NC1(C(=O)NCc2ccc(Nc3ccccc3C(F)(F)F)cc2)CC1 [(34)]
111 | 77 | Nc1ccc(C(=O)N[C@@]2(C(=O)NCc3ccc(Nc4ccccc4C(F)(F)F)cc3)CCOC2)cn1 [(57)]
109 | – | Cc1ccc(C(=O)N[C@@]2(C(=O)NCc3ccc(Nc4ccccc4C(F)(F)F)cc3)CCOC2)cn1 [(58)]
22 | – | O=C(Cc1ccccn1)N[C@@]1(C(=O)NCc2ccc(Nc3ccccc3C(F)(F)F)cc2)CCOC1 [(59)]
97 | > 500 | O=C(N[C@@]1(C(=O)NCc2ccc(Nc3ccccc3C(F)(F)F)cc2)CCOC1)c1ccnc(Cl)c1 [(61)]
60 | – | O=C(N[C@@]1(C(=O)NCc2ccc(Nc3ccccc3C(F)(F)F)cc2)CCOC1)c1ccc(=O)[nH]n1 [(62)]
108 | 118 | Nc1cc(C(=O)N[C@@]2(C(=O)NCc3ccc(Nc4ccccc4C(F)(F)F)cc3)CCOC2)ccn1 [(63)]
109 | 98 | O=C(N[C@@]1(C(=O)NCc2ccc(Nc3ccccc3C(F)(F)F)cc2)CCOC1)c1ccnnc1 [(64)]
